These results are taken from patent publication US6518410B2, “Sulfoquinovosylacylglycerol derivative, and use thereof as medicaments” (Toyo Suisan Kaisha, Ltd., priority 1999, dated 2003).

The test system of test [1] is gastric cancer cells NUGC-3. Kind of test: Anticancer activity against cultured gastric cancer cells (MTT assay). It is filed as cell-based. The following applies: Homo sapiens, NUGC-3, 48 hours, mixture of S- and R-configurations. The protocol: (§1) Colon cancer cells DLD-1 were maintained and subcultured in RPMI 1640 medium (containing 10% calf serum). Each of compounds SQAG 1, SQAG 2, SQAG 4, SQAG 6, SQAG 8, SQAG 11, SQAG 12, SQAG 13 and SQAG 14 shown in Table 1 was suspended and diluted in the medium, and then was cultivated in a 96-well plate together with the cancer cells at 3×10^3 cells/well. After the culture has been incubated for 48 hours, the MTT assay (Mosmann, T: Journal of immunological Method, 65, 55-63 (1983)) was carried out to compare viability rates.
An assay on anticancer activity against cultured gastric cancer cells was carried out in the same manner as in the assay 4 except that gastric cancer cells NUGC-3 were used instead of the colon cancer cells DLD-1.
Background: Tetrazolium assays rely on reduction of a dye to a coloured formazan, in cell work by metabolically active cells.

The target of test [2] is T1, DNA polymerase α isolated from the bovine thymus (Bos taurus, UniProt A0AAA9TD94).
T1 construct: isolated from the bovine thymus and purified with an antibody column; from tissue; host or cells: bovine thymus
T1 sequence (A0AAA9TD94 1-1441): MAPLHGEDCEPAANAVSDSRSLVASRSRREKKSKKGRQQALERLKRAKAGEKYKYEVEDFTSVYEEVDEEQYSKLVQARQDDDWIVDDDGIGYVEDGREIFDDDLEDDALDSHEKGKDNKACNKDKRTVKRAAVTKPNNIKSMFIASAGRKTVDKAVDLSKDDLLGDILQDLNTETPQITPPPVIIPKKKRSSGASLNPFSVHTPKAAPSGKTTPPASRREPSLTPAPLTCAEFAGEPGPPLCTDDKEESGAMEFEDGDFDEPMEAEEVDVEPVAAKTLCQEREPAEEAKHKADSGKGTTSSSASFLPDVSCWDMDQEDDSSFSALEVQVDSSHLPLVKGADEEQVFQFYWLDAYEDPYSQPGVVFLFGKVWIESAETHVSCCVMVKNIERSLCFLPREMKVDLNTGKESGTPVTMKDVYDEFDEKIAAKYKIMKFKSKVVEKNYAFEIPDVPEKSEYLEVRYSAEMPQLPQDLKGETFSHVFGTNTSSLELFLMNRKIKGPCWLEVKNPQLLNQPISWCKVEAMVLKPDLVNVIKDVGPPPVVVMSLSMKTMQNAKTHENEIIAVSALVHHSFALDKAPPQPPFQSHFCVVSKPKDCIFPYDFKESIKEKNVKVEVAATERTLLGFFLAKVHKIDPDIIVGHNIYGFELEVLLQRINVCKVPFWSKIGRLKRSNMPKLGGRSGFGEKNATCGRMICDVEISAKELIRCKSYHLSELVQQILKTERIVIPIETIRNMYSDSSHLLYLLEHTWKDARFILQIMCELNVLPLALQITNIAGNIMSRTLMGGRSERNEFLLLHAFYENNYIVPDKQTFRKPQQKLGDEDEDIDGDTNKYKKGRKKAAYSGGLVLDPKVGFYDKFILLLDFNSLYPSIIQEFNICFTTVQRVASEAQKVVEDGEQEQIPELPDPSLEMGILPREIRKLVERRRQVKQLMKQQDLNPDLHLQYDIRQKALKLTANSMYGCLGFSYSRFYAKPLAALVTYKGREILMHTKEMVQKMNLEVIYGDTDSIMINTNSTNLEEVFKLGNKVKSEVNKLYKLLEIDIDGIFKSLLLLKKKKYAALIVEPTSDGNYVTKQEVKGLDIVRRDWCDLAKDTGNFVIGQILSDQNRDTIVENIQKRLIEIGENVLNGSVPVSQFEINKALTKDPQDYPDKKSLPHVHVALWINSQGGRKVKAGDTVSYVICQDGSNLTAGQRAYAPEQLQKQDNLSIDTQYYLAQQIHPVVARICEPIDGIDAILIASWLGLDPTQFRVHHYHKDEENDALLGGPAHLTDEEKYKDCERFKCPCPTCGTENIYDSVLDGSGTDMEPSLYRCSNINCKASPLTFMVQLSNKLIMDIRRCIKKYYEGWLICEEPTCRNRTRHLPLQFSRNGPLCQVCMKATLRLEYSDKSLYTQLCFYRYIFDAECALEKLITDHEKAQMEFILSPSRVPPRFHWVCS
In words: Inhibitory effect against DNA polymerase α. It is filed as biochemical. The following applies: 0.05 U enzyme, 37° C., 60 minutes; mixture of S- and R-configurations; read-out: IC50, Inhibition Activity against DNA Polymerase α (converted). How it is done:
An assay on inhibitory effect against a DNA polymerase α was carried out in the following manner.
0.05 U of a DNA polymerase α isolated from the bovine thymus and purified with an antibody column was mixed with each of compounds SQAG 1 to SQAG 14 listed in Table 1 above, each of which was dissolved in DMSO. Each mixture was added with a buffer of an inorganic salt necessary for the enzymatic reaction, [^3H]-labeled dTTP, and a compound for reaction containing a template DNA chain, and was incubated at 37° C. for 60 minutes.
After the enzymatic reaction was stopped, the resultant product was fixed on a dedicated filter to make measurement by a liquid scintillation counter. The amount of enzymatically synthesized dTTP was calculated as a radiation dose (cpm) of [^3H].

For the next test, the system named is Colon cancer cells DLD-1. Kind of test: Anticancer activity against cultured colon cancer cells (MTT assay). It counts as cell-based. The following applies: Homo sapiens, DLD-1, 48 hours, mixture of S- and R-configurations, read-out: IC50, Anti-Cancer Activity against Colon Cancer Cells. How it is done:
An assay on anticancer activity against cultured colon cancer cells was carried out in the following manner.
as §1

Test [3] has as its system LEW rat skin graft on ACI rats. Kind of test: Rejection test in skin graft. It counts as in vivo. The following applies: 10 mL of 1 mg/mL intraperitoneally daily for five days, graft taken on the seventh day. The protocol:
Rejection test in skin graft
ACI rats and LEW rats were prepared and subjected to inhalation anesthesia of ether. After shaving the dorsum of each ACI rat, posterior lateral skin (1×1 cm) was removed to form a skin-flayed wound, and then a hemostatic treatment was performed. On the other hand, a piece of skin (1×1 cm) was obtained from the tail of each LEW rat. The donor skin was applied to the skin-flayed wound of each ACI rat and sutured with 5-0 nylon sutures. Then, gauze was applied to the surgically operated portion and a corset with a rubber bandage was further attached thereon to protect it. Such a skin transplantation operation was applied to all ten ACI rats in the same manner. Of the ten ACT rats, five rats were selected at random and classified as a control group, and the remaining five rats were classified as a test group to which test substances are to be administered. To the control group, 10 mL of physiological saline was intraperitoneally injected daily for five days after the surgery. To the test group, 10 mL solution of SQAG 9 dissolved in physiological saline at a concentration of 1 mg/mL was intraperitoneally injected daily for five days after the surgery in the same manner as in the control group.
On the seventh day after the operation, a graft was taken to prepare a tissue specimen. […]

Test [4] relates to responder cells (T lymphocytes) with mitomycin C treated stimulator lymphocytes. Kind of test: Mixed lymphocytes reaction ([3H]-thymidine uptake of responder cells). It counts as cell-based, healthy persons. The following applies: 4 days culture, then 12 hours [3H]-thymidine; FIGS. 1-4. How it is done: Mixed lymphocytes reaction
Lymphocytes serving as stimulator cells and responder cells were prepared from blood taken from individual healthy persons.
The responder cells were further separated from the lymphocyte cells to give T lymphocytes alone.
No treatment was applied to the responder cells. 10^6/mL of the stimulator cells were treated with 10 μg/mL of mitomycin C to stop the cell growth. Thereafter, the stimulator cells were washed with PBS (phosphate buffer saline) 4 times.
Subsequently, the responder cells were inoculated at a rate of 10^5 cells per well and then test substances (compounds SQAG 3, SQAG 5, SQAG 7, and SQAG 9 listed in Table 6 below) were added to a predetermined concentration. The reaction mixture was cultured at 37° C. for one hour. Thereafter, the stimulator cells were added at a rate of 10^5 cells per well. The mixture was cultured in a CO2 incubator at 37° C. for 4 days. After the incubation, the proliferation ability of the responder cells was quantified as follows. […] Then, the amount of [^3H]-thymidine uptake into the cells was determined by a scintillation counter.
FIGS. 1-4 show the amounts of [^3H]-thymidine uptake when SQAG 3, SQAG 5, SQAG 7, and SQAG 9 are added. […] In each of the FIGS. 1-4, the vertical axis indicates the intensity of radioactivity and the horizontal axis indicates the concentration of the test substance.

In general, IC50 refers to the concentration at which inhibition is half-maximal. On to `CCCCCCCCCCCCCCCC(=O)OCC(O)CO[C@H]1O[C@H](CS(=O)(=O)O)[C@@H](O)[C@H](O)[C@H]1O` (mixture of isomers) [SQAG 4], for which the figures for the IC50 (in test [1]; in test [2]; in the test on Colon cancer cells DLD-1) were 40 µg/mL, 6290 nM and 31 µg/mL, respectively.
Turning to `CCCCCCCCCCCCCCCCCC(=O)OCC(CO[C@H]1O[C@H](CS(=O)(=O)O)[C@@H](O)[C@H](O)[C@H]1O)OC(=O)CCCCCCCCCCCCCCCCC` (mixture of isomers) [SQAG 5], the IC50 in test [2] is 352 nM.
As to `CCCCCCCCCCCCCCCCCC(=O)OCC(CO[C@@H]1O[C@H](CS(=O)(=O)O)[C@@H](O)[C@H](O)[C@H]1O)OC(=O)CCCCCCCCCCCCCCCCC` (mixture of isomers) [SQAG 9], in test [3], the “necrosis of the epidermal layer of the graft (histological observation)” value is listed as “three out of five rats” and the “rats in which some parts of the epidermis adhered to the dermis (rejection suppressed)” value is reported as “remaining two rats”. Also, the “immunosuppressive activity (amount of [3H]-thymidine uptake)” value in test [4] is listed as “considerably higher immunosuppressive activity than other compounds”. In addition, the IC50 in test [2] was 352 nM.
With `CCCCCCCCCCCCCCCCCCCC(=O)OCC(O)CO[C@H]1O[C@H](CS(=O)(=O)O)[C@@H](O)[C@H](O)[C@H]1O` (mixture of isomers) [SQAG 11], the IC50 was 24 µg/mL in test [1], 1960 nM in test [2] and 28 µg/mL in the test with Colon cancer cells DLD-1.
Taken in the same sequence, the figures for `CCCCCCCCCCCCCCCCCCCCCCCCCC(=O)OCC(O)CO[C@H]1O[C@H](CS(=O)(=O)O)[C@@H](O)[C@H](O)[C@H]1O` (mixture of isomers) [SQAG 14] were 20 µg/mL, 1430 nM and 18 µg/mL.
On the same counts, the results for `CCCCCCCCCCCCCCCCCC(=O)OCC(O)CO[C@H]1O[C@H](CS(=O)(=O)O)[C@@H](O)[C@H](O)[C@H]1O` (mixture of isomers) [SQAG 6] are 37.5 µg/mL, 4100 nM and 30 µg/mL.
As to `CCCCCCCCCCCCCCCCCC(=O)OCC(O)CO[C@@H]1O[C@H](CS(=O)(=O)O)[C@@H](O)[C@H](O)[C@H]1O` (mixture of isomers) [SQAG 10], the IC50 in test [2] is 5130 nM.
With `CCCCCCCCCCCCCCCC(=O)OCC(O)CO[C@@H]1O[C@H](CS(=O)(=O)O)[C@@H](O)[C@H](O)[C@H]1O` (mixture of isomers) [SQAG 8], the IC50 in test [1] was 50 µg/mL; in test [2], 7190 nM; with Colon cancer cells DLD-1, 42 µg/mL.
Consider `CCCCCCCCCCCCCCCCCCCCCCCC(=O)OCC(O)CO[C@H]1O[C@H](CS(=O)(=O)O)[C@@H](O)[C@H](O)[C@H]1O` (mixture of isomers) [SQAG 13], for which the IC50 in test [1] was 20 µg/mL; in test [2], 1490 nM; in the test with Colon cancer cells DLD-1, 20 µg/mL.
Regarding `CCCCCCCCCCCCCCCC(=O)OCC(CO[C@H]1O[C@H](CS(=O)(=O)O)[C@@H](O)[C@H](O)[C@H]1O)OC(=O)CCCCCCCCCCCCCCC` (some centres unmarked) [SQAG 3], in test [2], the IC50 is 503 nM.
For `CCCCCCCCCCCCCC(=O)OCC(O)CO[C@H]1O[C@H](CS(=O)(=O)O)[C@@H](O)[C@H](O)[C@H]1O` (mixture of isomers) [SQAG 2], the results for the IC50 (in test [1]; in test [2]; in the test with Colon cancer cells DLD-1) were 40 µg/mL, 8510 nM and 40 µg/mL, respectively.
Regarding `CCCCCCCCCCCCCCCC(=O)OCC(CO[C@@H]1O[C@H](CS(=O)(=O)O)[C@@H](O)[C@H](O)[C@H]1O)OC(=O)CCCCCCCCCCCCCCC` (mixture of isomers) [SQAG 7], the half-inhibitory concentration (IC50) in test [2] is 377 nM.
On to `CCCCCCCCCCCCCCCCCCCCCC(=O)OCC(O)CO[C@H]1O[C@H](CS(=O)(=O)O)[C@@H](O)[C@H](O)[C@H]1O` (mixture of isomers) [SQAG 12], for which the IC50 in test [1] was 23 µg/mL; in test [2], 1560 nM; in the test with Colon cancer cells DLD-1 it was 20 µg/mL.
Taken in the same sequence, the figures for `CCCCCCCCCCCCCC(=O)OCC(CO[C@H]1O[C@H](CS(=O)(=O)O)[C@@H](O)[C@H](O)[C@H]1O)OC(=O)CCCCCCCCCCCCC` (mixture of isomers) [SQAG 1] were 32 µg/mL, 1080 nM and 38 µg/mL.
